From the NIST ThermoML archive (doi:10.1021/je500237g)
± gives the expanded uncertainty stated by the source.

Tests used:
[1] = refractive index (Na D-line) (dimensionless); conditions: 293.15 K; 101.33 kPa; Liquid; Standard Abbe refractometry
[2] = Liquid; for mass density: 293.15 K, 101.33 kPa, Vibrating tube method; for vapor or sublimation pressure: Ebulliometric method (Recirculating still)

Row | refractive index [1] | mass density [2] | vapor or sublimation pressure ([2]; 453.7 K) | vapor or sublimation pressure ([2]; 357.6 K) | vapor or sublimation pressure ([2]; 346.5 K) | vapor or sublimation pressure ([2]; 367.1 K) | SMILES
1 | 1.4218 ± 0.0007 | 750 ± 0.8 kg/m3 | 40 ± 0.2 kPa |  |  |  | CCCCCCCCCCCC [dodecane]
2 | 1.3954 ± 0.0007 | 802.7 ± 0.8 kg/m3 |  | 40 ± 0.2 kPa |  |  | CC(C)CO [2-methyl-1-propanol]
3 | 1.3851 ± 0.0007 | 804.9 ± 0.8 kg/m3 |  |  | 40 ± 0.2 kPa |  | CCCO [propan-1-ol]
4 | 1.3992 ± 0.0007 | 810.4 ± 0.8 kg/m3 |  |  |  | 40 ± 0.2 kPa | CCCCO [butan-1-ol]
